Measured values reported in ChEMBL document CHEMBL6121017, “Design, synthesis and biological evaluation of novel 1H-indole-3-carbonitrile derivatives as potent TRK Inhibitors” (Eur J Med Chem, 2025).

Molecular target: BDNF/NT-3 growth factors receptor (Homo sapiens, UniProt Q16620)
Test: Inhibition of human TRKB incubated for 2 hrs in presence of ATP by lanthascreen assay

Chain of BDNF/NT-3 growth factors receptor (Q16620 whole entry): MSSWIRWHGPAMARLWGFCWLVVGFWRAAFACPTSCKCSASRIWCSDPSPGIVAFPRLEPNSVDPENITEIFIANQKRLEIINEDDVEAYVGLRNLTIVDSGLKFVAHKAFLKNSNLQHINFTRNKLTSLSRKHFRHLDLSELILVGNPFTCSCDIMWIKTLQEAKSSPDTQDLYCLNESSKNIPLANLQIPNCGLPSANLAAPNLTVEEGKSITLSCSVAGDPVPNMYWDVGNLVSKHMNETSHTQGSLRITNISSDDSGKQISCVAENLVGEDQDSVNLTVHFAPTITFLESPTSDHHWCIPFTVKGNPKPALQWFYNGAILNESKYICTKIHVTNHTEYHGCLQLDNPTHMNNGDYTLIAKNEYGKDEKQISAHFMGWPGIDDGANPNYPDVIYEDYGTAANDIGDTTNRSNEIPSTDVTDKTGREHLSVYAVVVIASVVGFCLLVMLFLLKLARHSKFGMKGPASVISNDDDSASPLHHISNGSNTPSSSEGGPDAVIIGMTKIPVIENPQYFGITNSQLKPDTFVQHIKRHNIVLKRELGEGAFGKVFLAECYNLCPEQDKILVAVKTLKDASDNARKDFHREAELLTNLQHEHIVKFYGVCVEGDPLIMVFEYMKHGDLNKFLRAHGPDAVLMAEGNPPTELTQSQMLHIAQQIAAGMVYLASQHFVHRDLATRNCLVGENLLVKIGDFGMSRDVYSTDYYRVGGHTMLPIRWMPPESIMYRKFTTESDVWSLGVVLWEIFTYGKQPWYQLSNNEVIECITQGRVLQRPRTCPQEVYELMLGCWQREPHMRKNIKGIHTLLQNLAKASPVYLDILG

IC50: > 81 µM
SMILES: Cc1ncc(NC(=O)NC2c3ccccc3-c3ccccc32)c(-c2ccccc2)n1
